Test results reported in patent publication US9127016B2, “Small molecule inhibitors of Dusp6 and uses therefor” (University of Pittsburgh—Of the Commonwealth System of …, priority 2009, dated 2015).

Tests used:
[1] = test system: cardiac progenitors / heart size; assay: Cardiac progenitor and heart size analysis in treated embryos; format: in vivo, zebrafish
Procedure: (§1) In situ hybridization experiments were carried out as described previously (Kudoh, T. et al. Genome Res 11, 1979-87 (2001)). The probes eng3, krox20, sef, dusp6, gata4, nkx2.5, cmlc2, vmhc, scl, etsrp and hand2 were generated with a RNA labeling kit (Roche) (Tsang, M. et al. Development 131, 2769-79 (2004); Chen, J. N. et al. Development 122, 3809-16 (1996); Ekker, M., et al. Development 116, 1001-10 (1992); Liao, E. C. et al. Genes Dev 12, 621-6 (1998); Oxtoby, E. et al. Nucleic Acids Res 21, 1087-95 (1993); Pham, V. N. et al. Dev Biol 303, 772-83 (2007); Tsang, M., et al. Nat Cell Biol 4, 165-9 (2002); Yelon, D., et al. Dev Biol 214, 23-37 (1999); and Yelon, D. et al. Development 127, 2573-82 (2000)). The double fluorescent in situ hybridization protocol was described by Schoenbeck et al. (Dev Cell 13, 254-67 (2007)). Fluorescent in situ hybridizations were visualized by confocal microscopy. Single optical sections and z-series of flat-mounted stained embryos were collected with a confocal laser scan head (SP5, Leica Microsystems, Inc.) mounted on an inverted compound microscope (DM16000, Leica Microsystems, Inc.). Images were scanned and compiled with NIH ImageJ software (rsb.info.nih.gov/ij/).
The identification of a small molecule that blocks the biologically relevant activity of Dusp6 and Dusp1 allowed us to probe the requirement for these enzymes in later developmental processes. Given that BCI could potentially block related members of the Dusp family, we examined the expression of other dusps in zebrafish. Detailed expression analyses of several dusps have been described and include dusp4, dusp1, dusp7, dusp5, and dusp22a (Qian, F. et al. Dev Dyn 233, 1163-72 (2005); Sumanas, S., et al. Blood 106, 534-41 (2005); Brown, J. L. et al. Proc Natl Acad Sci USA 105, 12337-42 (2008); Kudoh, T. et al. Genome Res 11, 1979-87 (2001); and Thisse, B. et al. Fast Release Clones: A High Throughput Expression Analysis. ZFIN Direct Data Submission (zfin.org) (2004)). Of these only Dusp6 functions as a feedback regulator of FGF/MAPK/ERK signaling and is expressed within the anterior lateral plate mesoderm, supporting the idea that this phosphatase plays a role in heart development. In early embryogenesis, Dusp6 is an important regulator of FGF signaling; knock-down with antisense morpholinos results in embryo polarity defects, which precludes the study of Dusp6′s role in later development (Tsang, M. et al. Development 131, 2769-79 (2004)). In contrast, small molecules permit the analysis at later stages of development due to rapid and transient perturbation of their biological targets. Using BCI as a chemical probe, we asked how inhibiting Dusp6 activity would alter patterning and formation of the heart. The zebrafish heart develops from a small group of cardiac progenitor cells that can be identified by 5 hpf within the mesodermal layer of the blastula stage embryo. During gastrulation, cardiac progenitor cells undergo cellular migration to form two bilateral populations known as the anterior lateral plate mesoderm (ALPM) located just behind the MHB, and begin to express the transcription factors nkx2.5 and gata4. Studies have described a role for Fgf8 in zebrafish heart development. In embryos harboring an fgf8 mutation, both atria and ventricular cells are reduced (Marques, S. R., et al. Dev Biol 321, 397-406 (2008) and Reifers, F., et al. Development 127, 225-35 (2000)). In agreement with the notion that FGF signaling plays a role in stipulating heart size, ectopic expression of a constitutively activated FGF receptor (Fgfrl) during somitogenesis stages expanded cardiac tissue (Marques, S. R., et al. Dev Biol 321, 397-406 (2008)). Therefore we used BCI to test if Dusp6 limits FGF signaling and restricts cardiac progenitors and heart organ size. In BCI-treated embryos a caudal expansion of gata4 in the ALPM was observed (compare FIG. 14a & a′ to 14b & b′; 81%, n=16). […]

zebrafish embryo = assay: Zebrafish embryo survival after prolonged exposure; format: in vivo
Procedure: We next addressed if BCI and related analogs are detrimental to zebrafish embryo survival after prolong exposure. […] The percentage of embryos that died after 24 hours treatment was 100% at 20 μM.

Spry4 = assay: Zebrafish mRNA microinjection, rescue of sef expression, spry4; format: in vivo; conditions: 5 μM BCI, shield stage
Procedure: (§2) dusp6 and XFD mRNA for microinjection studies were generated as previously described (Tsang, M. et al. Development 131, 2769-79 (2004)). Both Dusp5 and Spry4 ORFs were amplified by RT-PCR from 24 hpf zebrafish with the following primers: […]
(§3) Amplified PCR products were subcloned into pCS2+, sequenced verified and mRNAs were synthesized as described previously. Embryos were injected with 500 pg mRNA at the 1-2 cell stage, treated with 5 μM BCI at the 1000-cell stage and fixed at shield stage for in situ hybridization.
as §1, with “Fluorescent in situ hybridizations were visualized by confocal microscopy. Single optical sections and z-series of flat-mounted stained embryos were collected with a confocal laser scan head (SP5, Leica Microsystems, Inc.) mounted on an inverted compound microscope (DM16000, Leica Microsystems, Inc.). Images were scanned and compiled with NIH ImageJ software (rsb.info.nih.gov/ij/).” left out

[2] = test system: XFD (dominant negative FGF receptor); assay: Zebrafish mRNA microinjection, rescue of sef expression, XFD; format: in vivo; conditions: 5 μM BCI, shield stage
Procedure: as §2, §3
as §1, with “Fluorescent in situ hybridizations were visualized by confocal microscopy. Single optical sections and z-series of flat-mounted stained embryos were collected with a confocal laser scan head (SP5, Leica Microsystems, Inc.) mounted on an inverted compound microscope (DM16000, Leica Microsystems, Inc.). Images were scanned and compiled with NIH ImageJ software (rsb.info.nih.gov/ij/).” left out

FGF target genes = assay: Whole mount in situ hybridization of FGF target genes in treated embryos; format: in vivo, zebrafish
Procedure: as §1
We previously described the generation of a transgenic zebrafish line, (Tg(Dusp6:d2EGFP)pt6) that expresses destabilized green fluorescent protein (d2EGFP) under the control of FGF signaling (Molina, G. A., et al. BMC Dev Biol 7, 62 (2007)). […] Five transgenic embryos at 24 hours post fertilization (hpf) were arrayed into each well of a 96-well plate containing test compounds at 10 μM. d2EGFP intensity in treated embryos was visually analyzed and compared to vehicle control (0.5% DMSO) after 6-8 hours. […] To confirm that BCI hyperactivated FGF signaling, we treated embryos prior to gastrulation (5 hpf), and we analyzed by whole mount in situ hybridization, the expression of ntl (zebrafish brachyury), a known FGF target gene (Latinkic, B. V. et al. Genes Dev 11, 3265-76 (1997)). […] We next determined the BCI structural features required to enhance FGF signaling. […]

In the case of `O=C1/C(=C/c2ccccc2)C(NC2CCCCC2)c2ccccc21` (stereo not shown) [Compound 3, (E)-2-benzylidene-3-(cyclohexylamino)-2,3-dihydro-1H-inden-1-one], the “embryos with expansion of cardiac hand2 expression” value ([1]; 10-somite stage, n=19) is reported as 32%, the “embryos with increase in cmlc2 positive cells” value ([1]; 18-somite stage, n=16) is reported as 81% and the “embryos with expanded nkx2.5 cardiac progenitor pools” value ([1]; n=11) is reported as 91%. For the same compound, the “embryos with caudal expansion of gata4 in the ALPM” value ([1]; n=16, 10-somite stage) was 81%, the “cardiac tissue in larvae” value ([1]; treated at 40% epiboly, washout next day, 56 hpf) was “marked expansion in cardiac tissue” and the “embryos with marked reduction in scl expression” value ([1]; treated from the 1-somite stage, n=15) was 93%. For the same compound, the “percentage of embryos that died after 24 hours treatment” value (zebrafish embryo; 20 μM, 24 hours) was 100%, the “effect of prolonged exposure on embryos” value (zebrafish embryo; high doses (>10 μM) for 24 hours) was “embryo defects, such as tail necrosis and even death” and the “reversal of effects of spry4 mRNA on sef expression” value (Spry4) was “did not reverse”. For the same compound, the “reversal of effects of XFD mRNA on sef expression” value [2] was “did not reverse”, the expression of ntl (FGF target genes; treated prior to gastrulation (5 hpf), 6-somite stage) was “greatly expanded” and the “expression of engrailed3 (eng3) and krox20” value (FGF target genes; treatment during somitogenesis) was “increased expression”. For the same compound, the “expression of dusp6” value (FGF target genes; treatment from the 1- to 10-somite stage) was “marked increase”.
